Here are results for one compound from article PMC8254048, “An interdomain hydrogen bond in the Rag GTPases maintains stable mTORC1 signaling in sensing amino acids” (The Journal of Biological Chemistry, 2021).

Experiment [1] has as its target T1, RagA–RagC GTPase heterodimer (Rag GTPases) (Homo sapiens, UniProt Q7L523+Q9HB90, Q9HB90:S266A).
T1 construct: gene RRAGA; RagA-RagC heterodimer coexpressed in E. coli BL21(DE3); nucleotide stripped with EDTA, gel filtration
Briefly: half-site GTP hydrolysis after nucleotide preloading. Format: biochemical. Conditions: 1.2 molar equivalents prebound, labelled GTP added; pH 7.4, 2 mM MgCl2, 25 °C; stimulates hydrolysis on second subunit.

Experiment [2] addresses T2, RagA–RagC GTPase heterodimer (Rag GTPases) (Homo sapiens, UniProt Q7L523+Q9HB90, Q7L523:T210A).
T2 construct: gene RRAGA; RagA-RagC heterodimer coexpressed in E. coli BL21(DE3); nucleotide stripped with EDTA, gel filtration
The experiment is described as above. The class given is biochemical. Conditions: 1.2 molar equivalents prebound, labelled GTP added; pH 7.4, 2 mM MgCl2, 25 °C; stimulates hydrolysis on second subunit.

Molecules are shown by their SMILES.

T1 sequence (Q7L523 whole entry): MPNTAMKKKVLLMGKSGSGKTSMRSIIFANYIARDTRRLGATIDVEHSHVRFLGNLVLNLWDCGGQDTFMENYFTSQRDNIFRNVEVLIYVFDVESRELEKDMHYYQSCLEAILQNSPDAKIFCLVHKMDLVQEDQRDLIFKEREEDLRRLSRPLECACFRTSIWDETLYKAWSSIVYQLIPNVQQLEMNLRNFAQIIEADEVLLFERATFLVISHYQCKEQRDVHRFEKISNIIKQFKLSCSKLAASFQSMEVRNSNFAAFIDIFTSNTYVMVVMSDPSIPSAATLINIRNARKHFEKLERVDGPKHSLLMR
T1 sequence (Q9HB90 whole entry S266A): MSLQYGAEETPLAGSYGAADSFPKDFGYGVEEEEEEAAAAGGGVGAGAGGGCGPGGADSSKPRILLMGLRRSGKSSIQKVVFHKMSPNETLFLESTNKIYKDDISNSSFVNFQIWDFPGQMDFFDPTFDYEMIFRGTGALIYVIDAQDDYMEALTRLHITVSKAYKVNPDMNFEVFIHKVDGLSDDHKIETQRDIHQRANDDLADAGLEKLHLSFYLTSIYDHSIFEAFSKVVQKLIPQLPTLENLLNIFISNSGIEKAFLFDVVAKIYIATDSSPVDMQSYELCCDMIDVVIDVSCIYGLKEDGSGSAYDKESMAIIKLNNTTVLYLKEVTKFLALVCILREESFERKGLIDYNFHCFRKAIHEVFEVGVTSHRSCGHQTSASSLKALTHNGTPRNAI
T2 sequence (Q7L523 whole entry T210A): as the sequence (Q7L523 whole entry) above, with T210A counted along it
T2 sequence (Q9HB90 whole entry): as the sequence (Q9HB90 whole entry S266A) above, with A266S counted along it

`Nc1nc2c(ncn2[C@@H]2O[C@H](COP(=O)(O)OP(=O)(O)NP(=O)(O)O)[C@@H](O)[C@H]2O)c(=O)[nH]1` [GppNHp]: the “half-site GTP hydrolysis after nucleotide preloading” value in experiment [1] and in experiment [2] was “prebound GTP or GppNHp stimulated hydrolysis of the later-bound GTP to a much higher level” each time.
